molecular target: T1, human GPR84 receptor (Homo sapiens, UniProt Q9NQS5); test: cAMP HTRF assay for identification of cellular GPR84 antagonists; type: cell-based; conditions: CHO-K1 cells stably expressing human GPR84; Forskolin + agonist 6-OAU (EC80); average or median values
T1 construct: frozen aliquots prepared by acCELLerate; host or cells: CHO-K1
How it was run: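 Forskolin-stimulated CHO-K1 cells stably expressing human GPR84, agonist-suppressed cAMP measured by HTRF (665/620 ratio) after lysis. Compounds at 11 concentrations, 20 μM to 0.07 nM, duplicate; normalized to DMSO and no-agonist controls; IC50 by 4-parameter fit.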

T1 sequence (Q9NQS5 whole entry): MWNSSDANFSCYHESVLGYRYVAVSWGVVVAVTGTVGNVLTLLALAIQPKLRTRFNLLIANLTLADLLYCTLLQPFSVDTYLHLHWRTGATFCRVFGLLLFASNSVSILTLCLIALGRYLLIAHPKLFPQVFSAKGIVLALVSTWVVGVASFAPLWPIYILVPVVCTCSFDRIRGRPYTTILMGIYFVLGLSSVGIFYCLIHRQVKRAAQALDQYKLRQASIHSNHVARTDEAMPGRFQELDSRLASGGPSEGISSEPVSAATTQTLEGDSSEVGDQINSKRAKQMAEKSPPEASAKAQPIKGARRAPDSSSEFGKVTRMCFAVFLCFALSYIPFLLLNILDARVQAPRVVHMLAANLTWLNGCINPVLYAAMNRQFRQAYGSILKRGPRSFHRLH

SMILES	IC50 [µM]
Cc1c(C(=O)NCc2cc(C3CC3)on2)oc2c1-c1nn(CC3COc4ncccc4O3)cc1CC2 (racemic) [Example 50, N-[(5-cyclopropyl-1,2-oxazol-3-yl)methyl]-2-[(2R/S)-2,3-dihydro[1,4]dioxino[2,3-b]pyridin-2-ylmethyl]-8-methyl-4,5-dihydro-2H-furo[2,3-g]indazole-7-carboxamide]	0.035
C[C@@H]1Cc2oc(C(=O)NCc3cnc(C(F)(F)F)nc3)c(C(F)(F)F)c2-c2nn(C[C@H]3COCCO3)cc21 (single isomer, unassigned) [Example 262, (4R or 4S)-2-{[(2S)-1,4-dioxan-2-yl]methyl}-4-methyl-8-(trifluoromethyl)-N-{[2-(trifluoromethyl)pyrimidin-5-yl]methyl}-4,5-dihydro-2H-furo[2,3-g]indazole-7-carboxamide]	0.195
Cc1c(C(=O)NCC2CC3(CC3)CO2)oc2c1-c1nn(C[C@H]3COCCO3)cc1C1(CC1)C2 (mixture of isomers) [Example 200]	0.111
C[C@@H]1Cc2oc(C(=O)NC[C@@H]3COCCO3)c(C(F)(F)F)c2-c2nn(CC3CCN(C(=O)C4(O)CC4)CC3)cc21 (single isomer, unassigned) [Example 295, (4R or 4S)-N-{[(2R)-1,4-dioxan-2-yl]methyl}-2-{[1-(1-hydroxycyclopropane-1-carbonyl)piperidin-4-yl]methyl}-4-methyl-8-(trifluoromethyl)-4,5-dihydro-2H-furo[2,3-g]indazole-7-carboxamide]	0.008
O=C(NCc1cnc(C2CC2)cn1)c1oc2c(c1C(F)(F)F)-c1nn(C[C@H]3COCCO3)cc1CC2 [Example 321, N-[(5-cyclopropylpyrazin-2-yl)methyl]-2-{[(2S)-1,4-dioxan-2-yl]methyl}-8-(trifluoromethyl)-4,5-dihydro-2H-furo[2,3-g]indazole-7-carboxamide]	0.003
Cc1c(C(=O)NCc2ccn(C)n2)oc2c1-c1nn(C[C@H]3COCCO3)cc1C1(CC1)C2 [Example 127, 2′-[(2S)-1,4-dioxan-2-ylmethyl]-8′-methyl-N-[(1-methyl-1H-pyrazol-3-yl)methyl]-2′,5′-dihydrospiro[cyclopropane-1,4′-furo[2,3-g]indazole]-7′-carboxamide]	0.17
Cc1c(C(=O)NC[C@@H]2CCCO2)oc2c1-c1nn(CC3(F)CNC3)cc1CC2 [Example 157, 2-[(3-fluoroazetidin-3-yl)methyl]-8-methyl-N-[(2S)-tetrahydrofuran-2-ylmethyl]-4,5-dihydro-2H-furo[2,3-g]indazole-7-carboxamide]	0.18
C[C@@H]1Cc2oc(C(=O)NC[C@@H]3COCCO3)c(C(F)(F)F)c2-c2nn(CC3CCN(C(=O)C4CC4)CC3)cc21 (single isomer, unassigned) [Example 291, (4R or 4S)-2-{[1-(cyclopropanecarbonyl)piperidin-4-yl]methyl}-N-{[(2R)-1,4-dioxan-2-yl]methyl}-4-methyl-8-(trifluoromethyl)-4,5-dihydro-2H-furo[2,3-g]indazole-7-carboxamide]	0.005
Cc1c(C(=O)NC[C@@H]2CCCO2)oc2c1-c1nn(CC3CN(C(=O)OC(C)(C)C)C3)cc1CC2 [Example 109, tert-butyl 3-[(8-methyl-7-{[(2S)-tetrahydrofuran-2-ylmethyl]carbamoyl}-4,5-dihydro-2H-furo[2,3-g]indazol-2-yl)methyl]azetidine-1-carboxylate]	0.011
Cc1c(C(=O)NCC2CCC3(COC3)O2)oc2c1-c1nn(C[C@H]3COCCO3)cc1C1(CC1)C2 (mixture of isomers) [Example 201]	0.08
CCN1CCC(Cn2cc3c(n2)-c2c(oc(C(=O)NC[C@@H]4CCCO4)c2C(F)(F)F)CC3)CC1 [Example 311, 2-[(1-ethylpiperidin-4-yl)methyl]-N-{[(2S)-oxolan-2-yl]methyl}-8-(trifluoromethyl)-4,5-dihydro-2H-furo[2,3-g]indazole-7-carboxamide]	0.202
Cc1c(C(=O)NC[C@@H]2CCCO2)oc2c1-c1nn(CC3CCOCC3)cc1CC2 [Example 189]	0.109
Cc1cccc(CNC(=O)c2oc3c(c2C(F)(F)F)-c2nn(C[C@H]4COCCO4)cc2[C@H](C)C3)n1 (single isomer, unassigned) [Example 315, (4R or 4S)-2-{[(2S)-1,4-dioxan-2-yl]methyl}-4-methyl-N-[(6-methylpyridin-2-yl)methyl]-8-(trifluoromethyl)-4,5-dihydro-2H-furo[2,3-g]indazole-7-carboxamide]	0.266
Cc1ccc(Cn2cc3c(n2)-c2c(oc(C(=O)NC[C@@H]4COCCO4)c2C(F)(F)F)CC3C)cn1 (mixture of isomers) [Example 252, (4±)-N-{I(2R)-1,4-dioxan-2-yl]methyl)-4-methyl-2-[(6-methylpyridin-3-yl)methyl]-8-(trifluoromethyl)-4,5-dihydro-2H-furo[2,3-g]indazole-7-carboxamide]	0.009
Cc1c(C(=O)NC[C@@H]2CCCO2)oc2c1-c1nn(C[C@@H]3CCCO3)cc1CC2 [Example 107, 8-methyl-N,2-bis[(2S)-tetrahydrofuran-2-ylmethyl]-4,5-dihydro-2H-furo[2,3-g]indazole-7-carboxamide]	0.035
C[C@@H]1Cc2oc(C(=O)NC[C@@H]3COCCO3)c(C(F)(F)F)c2-c2nn(CC3CCOCC3)cc21 (single isomer, unassigned) [Example 263, (4R or 4S)-N-{[(2R)-1,4-dioxan-2-yl]methyl}-4-methyl-2-[(oxan-4-yl)methyl]-8-(trifluoromethyl)-4,5-dihydro-2H-furo[2,3-g]indazole-7-carboxamide]	0.013

Other lines, results leading:

IC50 [µM]	SMILES
0.44	Cc1cc(Cn2cc3c(n2)-c2c(oc(C(=O)NC[C@@H]4COCCO4)c2C)CC3)cc(C)n1 [Example 82, 2-[(2,6-dimethylpyridin-4-yl)methyl]-N-[(2R)-1,4-dioxan-2-ylmethyl]-8-methyl-4,5-dihydro-2H-furo[2,3-g]indazole-7-carboxamide]
0.47	Cc1c(C(=O)NC[C@@H]2COCCO2)oc2c1-c1nn(C[C@H]3CCO3)cc1CC2 [Example 98, N-[(2R)-1,4-dioxan-2-ylmethyl]-8-methyl-2-[(2R)-oxetan-2-ylmethyl]-4,5-dihydro-2H-furo[2,3-g]indazole-7-carboxamide]
0.017	Cc1c(C(=O)NCc2cc(C3CC3)on2)oc2c1-c1nn(CC3COc4ncccc4O3)cc1CC2 (single isomer, unassigned) [Example 50-2]
0.025	[2H]C([2H])(c1ccccc1)n1cc2c(n1)-c1c(oc(C(=O)NC[C@@H]3COCCO3)c1C)CC2 [Example 136, N-[(2R)-1,4-dioxan-2-ylmethyl]-8-methyl-2-[phenyl(^2H2)methyl]-4,5-dihydro-2H-furo[2,3-g]indazole-7-carboxamide]
0.11	Cc1cccnc1Cn1cc2c(n1)-c1c(oc(C(=O)NC[C@@H]3CCCO3)c1C)CC2 [Example 62, 8-methyl-2-[(3-methylpyridin-2-yl)methyl]-N-[(2S)-tetrahydrofuran-2-ylmethyl]-4,5-dihydro-2H-furo[2,3-g]indazole-7-carboxamide]
0.67	Cc1c(C(=O)NCC2CCC(=O)O2)oc2c1-c1nn(Cc3ccccn3)cc1CC2 (single isomer, unassigned) [Example 39-1]
1.89	Cc1c(C(=O)NC[C@@H]2CCOC2)oc2c1-c1nn(Cc3ccccn3)cc1CC2 [Example 33-1, 8-methyl-2-(pyridin-2-ylmethyl)-N-[(3S)-tetrahydrofuran-3-ylmethyl]-4,5-dihydro-2H-furo[2,3-g]indazole-7-carboxamide]
0.118	Cc1c(C(=O)NCC2CCC(C)O2)oc2c1-c1nn(Cc3ccccn3)cc1CC2 (mixture of isomers) [Example 176]
0.028	Cc1ccc(Cn2cc3c(n2)-c2c(oc(C(=O)NC[C@@H]4CCCO4)c2C)CC3)nc1 [Example 64, 8-methyl-2-[(5-methylpyridin-2-yl)methyl]-N-[(2S)-tetrahydrofuran-2-ylmethyl]-4,5-dihydro-2H-furo[2,3-g]indazole-7-carboxamide]
0.066	Cc1c(C(=O)NC[C@@H]2CCCO2)oc2c1-c1nn(Cc3ccccn3)cc1C(C)C2 (mixture of isomers) [Example 247, (4+)-4,8-dimethyl-N-{[(2S)-oxolan-2-yl]methyl}-2-[(pyridin-2-yl)methyl]-4,5-dihydro-2H-furo[2,3-g]indazole-7-carboxamide]
0.24	Cc1c(C(=O)NCC2CCCO2)oc2c1-c1nn(Cc3ccccn3)cc1CC2 (racemic) [Example 3, 8-methyl-2-(pyridin-2-ylmethyl)-N-[(2R/S)-tetrahydrofuran-2-ylmethyl]-4,5-dihydro-2H-furo[2,3-g]indazole-7-carboxamide]
0.011	Cc1c(C(=O)NC[C@@H]2COCCO2)oc2c1-c1nn(Cc3ccccn3)cc1C1(CC1)C2 [Example 150]
0.18	Cc1c(C(=O)NCC2CCO2)oc2c1-c1nn(Cc3ccccn3)cc1CC2 (single isomer, unassigned) [Example 35-1]
0.15	Cc1c(C(=O)NCc2cc(C3CC3)on2)oc2c1-c1nn(Cc3ccccn3)cc1CC2 [Example 7, N-[(5-cyclopropyl-1,2-oxazol-3-yl)methyl]-8-methyl-2-(pyridin-2-ylmethyl)-4,5-dihydro-2H-furo[2,3-g]indazole-7-carboxamide]
0.7	Cc1c(C(=O)NCC2CN(C)CCO2)oc2c1-c1nn(Cc3ccccn3)cc1CC2 (racemic) [Example 38, 8-methyl-N-{[(2R/S)-4-methylmorpholin-2-yl]methyl}-2-(pyridin-2-ylmethyl)-4,5-dihydro-2H-furo[2,3-g]indazole-7-carboxamide]
0.17	Cc1ccc(Cn2cc3c(n2)-c2c(oc(C(=O)NC[C@@H]4CCCO4)c2C)CC3)c(C)n1 [Example 77, 2-[(2,6-dimethylpyridin-3-yl)methyl]-8-methyl-N-[(2S)-tetrahydrofuran-2-ylmethyl]-4,5-dihydro-2H-furo[2,3-g]indazole-7-carboxamide]
